Results taken from publication PMC5686171 (Scientific Reports, 2017).
Like-named read-outs stand apart in the source and are kept apart here.

How the values were obtained:
[1] = molecular target: T1, β2Y62Lγ2 (Rattus norvegicus, UniProt P18508+P63138, Y86L); test: Two-electrode voltage clamp, mutant β2Y62Lγ2 in Xenopus oocytes; format: cell-based; conditions: for DZ potentiation: 1 µM diazepam
T1 construct: expressed in transfected cells; host or cells: Xenopus laevis oocytes (cRNA injection, β2:γ2 1:3)
T1 sequence (P63138 25-474 Y86L limits assumed): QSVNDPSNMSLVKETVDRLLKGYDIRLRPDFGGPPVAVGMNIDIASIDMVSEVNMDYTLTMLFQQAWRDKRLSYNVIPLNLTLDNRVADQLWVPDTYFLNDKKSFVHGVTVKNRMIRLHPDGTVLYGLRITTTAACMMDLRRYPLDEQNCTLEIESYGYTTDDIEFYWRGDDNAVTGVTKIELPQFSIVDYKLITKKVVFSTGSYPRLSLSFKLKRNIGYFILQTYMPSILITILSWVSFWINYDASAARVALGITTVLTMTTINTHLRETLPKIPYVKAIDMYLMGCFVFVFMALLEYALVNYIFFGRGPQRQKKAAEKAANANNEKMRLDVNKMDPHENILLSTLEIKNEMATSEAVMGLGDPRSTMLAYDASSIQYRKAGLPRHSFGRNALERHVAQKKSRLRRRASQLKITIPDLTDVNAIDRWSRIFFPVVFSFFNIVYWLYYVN
T1 sequence (P18508 39-466): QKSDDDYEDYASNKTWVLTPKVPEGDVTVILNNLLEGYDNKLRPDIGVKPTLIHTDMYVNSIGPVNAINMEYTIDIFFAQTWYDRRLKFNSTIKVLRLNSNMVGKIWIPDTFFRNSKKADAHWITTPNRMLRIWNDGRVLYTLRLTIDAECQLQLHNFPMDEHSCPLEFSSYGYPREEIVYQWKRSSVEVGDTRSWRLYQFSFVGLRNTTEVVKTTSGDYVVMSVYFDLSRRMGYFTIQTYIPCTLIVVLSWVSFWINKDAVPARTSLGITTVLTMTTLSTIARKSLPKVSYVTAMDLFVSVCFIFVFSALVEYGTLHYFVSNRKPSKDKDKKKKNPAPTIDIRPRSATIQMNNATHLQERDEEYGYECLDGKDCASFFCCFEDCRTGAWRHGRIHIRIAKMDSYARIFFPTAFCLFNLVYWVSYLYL
Experimental: (§1) The point mutations β2Y62Lγ2, β2T202Aγ2, β2T202Sγ2, β2Y205Sγ2, β2Y205Qγ2, β2γ2F77Y, β2γ2S217A, β2γ2Y220S and β2γ2Y220Q were prepared using the QuickChange^TM mutagenesis kit (Stratagene, Agilent Technologies, Basel, Switzerland).
(§2) Animal experiments were carried out in strict accordance to the Swiss ethical guidelines, and have been approved by the local committee of the Canton Bern Kantonstierarzt, Kantonaler Veterinärdienst Bern (BE85/15). Surgery of Xenopus laevis to obtain the oocytes was done under anesthesia, and all efforts were made to diminish animal suffering. Oocytes were prepared, injected and defolliculated as described previously[41],[42]. Polyadenylated cRNA coding for the subunits of GABAA receptors were prepared in vitro with the mMESSAGE mMACHINE kit (Ambion, Austin, TX, USA). Oocytes were injected with 50 nl of solution containing cRNA coding for wild type or mutants β2 (1 fMol) or γ2 (3 fMol) subunits and then incubated in modified Barth’s solution (10 mM HEPES, pH 7.5, 88 mM NaCl, 1 mM KCl, 2.4 mM NaHCO3, 0.82 mM MgSO4, 0.34 mM Ca(NO3)2, 0.41 mM CaCl2, 100 units/ml penicillin, 100 µg/ml streptomycin) at 18 °C for 5–7 days before measurements.
(§3) Electrophysiological experiments were performed using an Oocyte Clamp OC-725 (Warner Instrument Corp., Hamden, USA) two-electrode voltage clamp amplifier. Currents were digitized at 5 kHz with MacLab/200 (AD Instruments, Spechbach, Germany).
(§4) The holding potential was −80 mV. The perfusion medium contained 90 mM NaCl, 1 mM KCl, 1 mM MgCl2, 1 mM CaCl2 and 5 mM Na-HEPES (pH 7.4). The perfusion solution (6 ml/min) was applied through a glass capillary with an inner diameter of 1.35 mm, the mouth of which was placed about 0.5 mm from the surface of the oocyte. […] Maximal current amplitudes (Imax) were obtained from the fits of the concentration-response curves. The individual curves were fitted and standardized to Imax and subsequently averaged. […] The duration of washout periods was 4 min in between agonist or agonist/drug applications to prevent receptor desensitization. […]

[2] = system: α1β2Y62Lγ2 receptors; test: Effect of mutation β2Y62L in α1β2γ2 receptors; format: cell-based; conditions: 50 µM etomidate vs GABA
[3] = molecular target: T2, β2γ2 GABAA receptors (Rattus norvegicus, UniProt P18508+P63138); test: Two-electrode voltage clamp, wild type β2γ2 receptors expressed in Xenopus oocytes; format: cell-based; conditions: for DZ potentiation: 1 µM diazepam, GABA eliciting 1–5% of maximal current; for GABA current amplitude: 10 mM GABA
T2 construct: expressed in transfected cells; host or cells: Xenopus laevis oocytes (cRNA injection, β2:γ2 1:3)
T2 sequence (P63138 25-474 limits assumed): as the sequence (P63138 25-474 Y86L limits assumed) above, with L62Y counted along it
T2 sequence (P18508 39-466): as the sequence (P18508 39-466) above
Experimental: as §2, §3, §4

[4] = molecular target: T3, γ2 (Rattus norvegicus, UniProt P18508); test: Two-electrode voltage clamp, γ2 subunit expressed alone in Xenopus oocytes; format: cell-based
T3 construct: expressed in transfected cells; host or cells: Xenopus laevis oocytes (cRNA injection)
T3 sequence (P18508 39-466): as above
Experimental: as §2, §3
(§5) The holding potential was −80 mV. The perfusion medium contained 90 mM NaCl, 1 mM KCl, 1 mM MgCl2, 1 mM CaCl2 and 5 mM Na-HEPES (pH 7.4). […]

[5] = molecular target: T4, γ2S217Aβ2 (Rattus norvegicus, UniProt P18508+P63138, S255A); test: Two-electrode voltage clamp, mutant γ2S217Aβ2 in Xenopus oocytes; format: cell-based; conditions: for DZ potentiation: 1 µM diazepam
T4 construct: expressed in transfected cells; host or cells: Xenopus laevis oocytes (cRNA injection, β2:γ2 1:3)
T4 sequence (P63138 25-474 limits assumed): as the sequence (P63138 25-474 Y86L limits assumed) above, with L62Y counted along it
T4 sequence (P18508 39-466 S255A): as the sequence (P18508 39-466) above, with S217A counted along it
Experimental: as §1, §2, §3, §4

[6] = molecular target: T5, γ2Y220Sβ2 (Rattus norvegicus, UniProt P18508+P63138, Y258S); test: Two-electrode voltage clamp, mutant γ2Y220Sβ2 in Xenopus oocytes; format: cell-based; conditions: 50 µM etomidate
T5 construct: expressed in transfected cells; host or cells: Xenopus laevis oocytes (cRNA injection, β2:γ2 1:3)
T5 sequence (P63138 25-474 limits assumed): as the sequence (P63138 25-474 Y86L limits assumed) above, with L62Y counted along it
T5 sequence (P18508 39-466 Y258S): as the sequence (P18508 39-466) above, with Y220S counted along it
Experimental: as §1, §2
(§6) Electrophysiological experiments were performed using an Oocyte Clamp OC-725 (Warner Instrument Corp., Hamden, USA) two-electrode voltage clamp amplifier. […]

[7] = molecular target: T6, γ2Y220Qβ2 (Rattus norvegicus, UniProt P18508+P63138, Y258Q); test: Two-electrode voltage clamp, mutant γ2Y220Qβ2 in Xenopus oocytes; format: cell-based; conditions: for DZ potentiation: 1 µM diazepam
T6 construct: expressed in transfected cells; host or cells: Xenopus laevis oocytes (cRNA injection, β2:γ2 1:3)
T6 sequence (P63138 25-474 limits assumed): as the sequence (P63138 25-474 Y86L limits assumed) above, with L62Y counted along it
T6 sequence (P18508 39-466 Y258Q): as the sequence (P18508 39-466) above, with Y220Q counted along it
Experimental: as §1, §2, §3, §4

[8] = molecular target: T7, β2T202Aγ2 (Rattus norvegicus, UniProt P18508+P63138, T226A); test: Two-electrode voltage clamp, mutant β2T202Aγ2 in Xenopus oocytes; format: cell-based; conditions: 50 µM etomidate
T7 construct: expressed in transfected cells; host or cells: Xenopus laevis oocytes (cRNA injection, β2:γ2 1:3)
T7 sequence (P63138 25-474 T226A): as the sequence (P63138 25-474 Y86L limits assumed) above, with L62Y, T202A counted along it
T7 sequence (P18508 39-466): as the sequence (P18508 39-466) above
Experimental: as §1, §2, §6

[9] = molecular target: T8, β2Y205Qγ2 (Rattus norvegicus, UniProt P18508+P63138, Y229Q); test: Two-electrode voltage clamp, mutant β2Y205Qγ2 in Xenopus oocytes; format: cell-based; conditions: 50 µM etomidate
T8 construct: expressed in transfected cells; host or cells: Xenopus laevis oocytes (cRNA injection, β2:γ2 1:3)
T8 sequence (P63138 25-474 Y229Q): as the sequence (P63138 25-474 Y86L limits assumed) above, with L62Y, Y205Q counted along it
T8 sequence (P18508 39-466): as the sequence (P18508 39-466) above
Experimental: as §1, §2, §6

[10] = molecular target: T9, γ2F77Yβ2 (Rattus norvegicus, UniProt P18508+P63138, F115Y); test: Two-electrode voltage clamp, mutant γ2F77Yβ2 in Xenopus oocytes; format: cell-based; conditions: for DZ potentiation: 1 µM diazepam
T9 construct: expressed in transfected cells; host or cells: Xenopus laevis oocytes (cRNA injection, β2:γ2 1:3)
T9 sequence (P63138 25-474 limits assumed): as the sequence (P63138 25-474 Y86L limits assumed) above, with L62Y counted along it
T9 sequence (P18508 39-466 F115Y): as the sequence (P18508 39-466) above, with F77Y counted along it
Experimental: as §1, §2, §3, §4

[11] = molecular target: T10, β2Y205Sγ2 (Rattus norvegicus, UniProt P18508+P63138, Y229S); test: Two-electrode voltage clamp, mutant β2Y205Sγ2 in Xenopus oocytes; format: cell-based; conditions: 50 µM etomidate
T10 construct: expressed in transfected cells; host or cells: Xenopus laevis oocytes (cRNA injection, β2:γ2 1:3)
T10 sequence (P63138 25-474 Y229S): as the sequence (P63138 25-474 Y86L limits assumed) above, with L62Y, Y205S counted along it
T10 sequence (P18508 39-466): as the sequence (P18508 39-466) above
Experimental: as §1, §2, §6

[12] = molecular target: T11, β2T202Sγ2 (Rattus norvegicus, UniProt P18508+P63138, T226S); test: Two-electrode voltage clamp, mutant β2T202Sγ2 in Xenopus oocytes; format: cell-based; conditions: for DZ potentiation: 1 µM diazepam
T11 construct: expressed in transfected cells; host or cells: Xenopus laevis oocytes (cRNA injection, β2:γ2 1:3)
T11 sequence (P63138 25-474 T226S limits assumed): as the sequence (P63138 25-474 Y86L limits assumed) above, with L62Y, T202S counted along it
T11 sequence (P18508 39-466): as the sequence (P18508 39-466) above
Experimental: as §1, §2, §3, §4

[13] = molecular target: T12, β2 (Rattus norvegicus, UniProt P63138); test: Two-electrode voltage clamp, β2 subunit expressed alone in Xenopus oocytes; format: cell-based
T12 construct: expressed in transfected cells; host or cells: Xenopus laevis oocytes (cRNA injection)
T12 sequence (P63138 25-474 limits assumed): as the sequence (P63138 25-474 Y86L limits assumed) above, with L62Y counted along it
Experimental: as §2, §3, §5

[14] = system: α1T206A in α1β2γ2; conditions: ref [26]; cited from earlier work
[15] = system: γ2F77Y in α1β2γ2; conditions: ref [29], cited from earlier work
[16] = system: mice carrying a point mutation in all those four alpha subunits; design: method as in Ralvenius et al.[40]; conditions: point-mutated mice, 10 mg/kg diazepam, ref Ralvenius et al.[40], cited from earlier work
[17] = system: α1β2γ2; conditions: read-out: EC50 of diazepam; cited from earlier work
[18] = system: α1T206V in α1β2γ2; conditions: ref [28]; cited from earlier work
[19] = system: α1T206C in α1β2γ2; conditions: ref [12],[27]; cited from earlier work

Q: Which Etomidate current amplitude ([1]; β2Y62Lγ2, 50 µM etomidate) does the source give for CCOC(=O)c1cncn1[C@H](C)c1ccccc1 [etomidate] here?
A: 13 ± 3 (11) nA

Q: What about the “Etomidate current relative to GABA current (fold smaller)” value ([1]; β2Y62Lγ2, 50 µM etomidate vs saturating GABA) of the same molecule?
A: about 4 fold

Q: And the “Etomidate current relative to GABA current (fold smaller)” value [2]?
A: about 30 fold

Q: What about the “Etomidate current relative to GABA current (fold larger)” value ([3]; wild type β2γ2, 50 µM etomidate vs saturating GABA) of the same molecule?
A: about 7 fold

Q: What about the Etomidate current amplitude ([3]; β2γ2, 50 µM etomidate, −80 mV) of the same molecule?
A: 946 ± 8 (4) nA

Q: And the Etomidate current amplitude ([4]; 50 µM etomidate)?
A: 0 ± 0 (5) nA

Q: And the Etomidate current amplitude ([5]; γ2S217Aβ2, 50 µM etomidate)?
A: 141 ± 31 (5) nA

Q: And the Etomidate current amplitude [6]?
A: 76 ± 17 (5) nA

Q: And the Etomidate current amplitude ([7]; γ2Y220Qβ2, 50 µM etomidate)?
A: 777 ± 113 (5) nA

Q: What about the Etomidate current amplitude [8] of the same molecule?
A: 8 ± 2 (5) nA

Q: What about the Etomidate current amplitude [9] of the same molecule?
A: 6 ± 2 (5) nA

Q: What about the Etomidate current amplitude ([10]; 50 µM etomidate) of the same molecule?
A: 193 ± 25 (4) nA

Q: And the Etomidate current amplitude [11]?
A: 0 ± 0 (5) nA

Q: And the Etomidate current amplitude ([12]; β2T202Sγ2, 50 µM etomidate)?
A: 380 ± 77 (5) nA

Q: And the Etomidate current amplitude ([13]; 50 µM etomidate)?
A: 4 ± 1 (4) nA

Q: For CN1C(=O)CN=C(c2ccccc2)c2cc(Cl)ccc21 [diazepam], which DZ potentiation ([1]; β2Y62Lγ2) is on record?
A: not significantly affected

Q: What about the DZ potentiation ([1]; β2Y62Lγ2, listed as DZ) of the same molecule?
A: 121 ± 12 (5) %

Q: What about the “Decrease in DZ affinity” value [14] of the same molecule?
A: (3-fold decrease in DZ affinity)

Q: What about the “Decrease in DZ affinity” value ([15]; listed as DZ) of the same molecule?
A: 230-fold decrease in DZ affinity

Q: And the “Decrease in DZ affinity” value [15]?
A: abolishes the binding site

Q: And the Locomotor activity ([16]; quite prominent at higher doses)?
A: trend towards reduced locomotor activity

Q: What about the “Diazepam-induced muscle relaxation and motor impairment” value [16] of the same molecule?
A: completely protected

Q: And the “Hill coefficient of diazepam” value ([3]; β2γ2)?
A: 0.6 ± 0.1

Q: What about the DZ potentiation ([3]; β2γ2) of the same molecule?
A: 216 ± 30%

Q: What about the DZ potentiation ([3]; β2γ2, listed as DZ) of the same molecule?
A: 216 ± 30 (15) %

Q: What about the DZ potentiation ([5]; γ2S217Aβ2) of the same molecule?
A: not significantly affected

Q: And the DZ potentiation ([5]; γ2S217Aβ2, listed as DZ)?
A: 185 ± 23 (4) %

Q: And the DZ potentiation ([7]; γ2Y220Qβ2)?
A: not significantly affected

Q: What about the DZ potentiation ([7]; γ2Y220Qβ2, listed as DZ) of the same molecule?
A: 127 ± 11 (6) %

Q: What about the EC50 [17] of the same molecule?
A: 0.092 ± 0.006 µM

Q: What about the DZ potentiation [10] of the same molecule?
A: nearly lost

Q: And the DZ potentiation ([10]; listed as DZ)?
A: 5 ± 2 (5) %

Q: What about the “Decrease in DZ affinity” value [18] of the same molecule?
A: (7-fold decrease in DZ affinity)

Q: And the DZ potentiation ([12]; β2T202Sγ2)?
A: not significantly affected

Q: What about the DZ potentiation ([12]; β2T202Sγ2, listed as DZ) of the same molecule?
A: 100 ± 7 (4) %

Q: What about the “Effect on DZ affinity” value [19] of the same molecule?
A: (no effect on DZ affinity)

Q: For NCCCC(=O)O [GABA, γ-Aminobutyric acid], which “Hill coefficient of GABA” value ([1]; β2Y62Lγ2) is on record?
A: 1.0 ± 0.1

Q: What about the GABA current amplitude ([1]; β2Y62Lγ2, 10 mM GABA) of the same molecule?
A: 53 ± 8 (17) nA

Q: And the “Decrease in the sensitivity for GABA” value ([1]; β2Y62Lγ2 vs wild-type β2γ2)?
A: 3 fold

Q: What about the “Smaller GABA current amplitude compared to wild-type” value ([1]; β2Y62Lγ2 vs wild-type β2γ2) of the same molecule?
A: 2 fold

Q: And the “Hill coefficient of GABA” value ([3]; β2γ2)?
A: 1.0 ± 0.1

Q: And the GABA current amplitude ([3]; β2γ2, cRNA ratio 1:3, −80 mV)?
A: 131 ± 19 (13) nA

Q: And the GABA current amplitude ([3]; β2γ2 from 1:1 and 2:1 cRNA ratios)?
A: less than 100 nA

Q: And the GABA current amplitude ([4]; 10 mM GABA)?
A: −4 ± 1 (5) nA

Q: And the “Hill coefficient of GABA” value ([5]; β2γ2S217A)?
A: 0.8 ± 0.1

Q: What about the “Decrease in sensitivity to GABA” value ([5]; β2γ2S217A vs wild-type β2γ2) of the same molecule?
A: 2 fold

Q: What about the GABA current amplitude ([5]; γ2S217Aβ2, 10 mM GABA) of the same molecule?
A: 100 ± 25 (13) nA

Q: And the “Hill coefficient of GABA” value ([7]; β2γ2Y220Q)?
A: 0.7 ± 0.1

Q: And the “Decrease in sensitivity to GABA” value ([7]; β2γ2Y220Q vs wild-type β2γ2)?
A: 5 fold

Q: What about the GABA current amplitude ([7]; γ2Y220Qβ2, 10 mM GABA) of the same molecule?
A: 127 ± 40 (6) nA

Q: And the “Hill coefficient of GABA” value [10]?
A: 0.9 ± 0.1

Q: What about the GABA current amplitude ([10]; 10 mM GABA) of the same molecule?
A: 148 ± 23 (11) nA

Q: And the “Hill coefficient of GABA” value ([12]; β2T202Sγ2)?
A: 0.8 ± 0.1

Q: And the GABA current amplitude ([12]; β2T202Sγ2, 10 mM GABA)?
A: 203 ± 18 (5) nA

Q: And the “Decrease in GABA sensitivity” value ([12]; β2T202Sγ2 vs wild-type β2γ2)?
A: 42 fold

Q: What about the GABA current amplitude ([13]; 10 mM GABA) of the same molecule?
A: −4 ± 1 (4) nA
